Tested on: fungal tyrosinase
Test: in vitro inhibition of the activity of fungal tyrosinase (OD at 475 nm)
Type: biochemical
Settings: active agent alone in ethanol, C1 = 1.25 × 10^−4 M
Description: This test consists in measuring the absorbence (optical density OD) at 475 nm as a function of time for each of the depigmenting active agents tested. These agents are dissolved (at various concentrations) in a suitable solvent in the presence of a phosphate buffer, 1 ml of L-tyrosine at 2.0×10^−3 M in a phosphate buffer, 0.1 ml of L-Dopa at 1.0×10^−4 M in a phosphate buffer and 50 μl of a fungal tyrosinase solution at 1 g/l in a phosphate buffer, compared with a control consisting of the solvent used at the same concentration in the phosphate buffer. A percentage of inhibition is then determined by the following equation: [formula] […] These two active agents in the concentrations C1 and C2 found above are then mixed together. The theoretical percentage of inhibition of the mixture (or theoretical IC), corresponding to the sum of the percentages of inhibition observed for the individual compounds, is then calculated, and the percentage of inhibition obtained (or measured IC) is measured under the same experimental conditions as for the compounds tested separately.

In the case of `CCOC(=O)Nc1ccc(O)cc1` [N-ethoxy-carbonyl-4-aminophenol, N-ethyloxycarbonyl-4-aminophenol], the “IC obtained (%)” value (inhibition actually obtained) was 23.5% and the “Theoretical IC (%)” value (inhibition value that should be observed (close to 25%)) was 24.8%.
